Test results from US4154967A, “Process for preparation of phenols” (Mitsui Petrochemical Industries, Ltd., priority 1976, dated 1979).

experiment: physchem; settings: ethanol-water

Going from `Sc1c(Cl)c(Cl)c(Cl)c(Cl)c1Cl` [pentachlorophenyl mercaptan] to `Sc1cc(Cl)c(Cl)cc1Cl` [2,4,5-trichlorophenyl mercaptan], the pKa rises from 3.5 to 4.2.

First: O=[N+]([O-])c1cccc(S)c1 [meta-nitrophenyl mercaptan]
Second: Sc1cccc(Cl)c1 [meta-chlorophenyl mercaptan]
The pKa of the first is lower: 5.9 for the first, 6.7 for the second.

Going from `O=[N+]([O-])c1ccc(S)c([N+](=O)[O-])c1` [2,4-dinitrophenyl mercaptan] to `CS(=O)(=O)c1ccc(S)cc1` [para-methylsulfonylphenyl mercaptan], the pKa rises from 4 to 5.6.

`Sc1ccc(I)cc1` [para-iodophenyl mercaptan] and `Sc1ccc(Br)cc1` [para-bromophenyl mercaptan] are within 0.2 log units of each other in pKa: 6.9 for the first, 7 for the second.

First: FC(F)(F)c1cc(S)ccc1Cl [3-trifluoromethyl-4-chlorophenyl mercaptan]
Second: FC(F)(F)c1ccc(Cl)c(S)c1 [2-chloro-5-trifluoromethylphenyl mercaptan]
The pKa of the first is higher: 6.2 for the first, 6 for the second.

`O=S(=O)(O)c1cccc(S)c1` [meta-mercaptobenzenesulfonic acid] and `CS(=O)(=O)c1cccc(S)c1` [meta-methylsulfonylphenyl mercaptan] are the same in pKa: 5.9 for the first, 5.9 for the second.

`O=C(O)c1ccc(S)cc1` [para-carboxyphenyl mercaptan] and `CC(=O)c1ccc(S)cc1` [para-acetyl phenyl mercaptan] are the same in pKa: 5.9 for the first, 5.9 for the second.

`Fc1cccc(S)c1` [meta-fluorophenyl mercaptan] and `Sc1cccc(Br)c1` [meta-bromophenyl mercaptan] are the same in pKa: 6.8 for the first, 6.8 for the second.

Compared with `Fc1c(F)c(F)c(S)c(F)c1F` [pentafluorophenyl mercaptan], `Fc1ccc(S)cc1` [para-fluorophenyl mercaptan] is higher in pKa: 2.7 for the first, 7.5 for the second.

First: Sc1cc(Cl)cc(Cl)c1 [3,5-dichlorophenyl mercaptan]
Second: Sc1ccc(Cl)c(Cl)c1 [3,4-dichlorophenyl mercaptan]
The pKa of the first is lower: 5.8 for the first, 6.2 for the second.

First: O=C(S)c1ccccc1 [thiobenzoic acid]
Second: O=C(O)c1ccccc1S [orthocarboxyphenyl mercaptan]
The pKa of the first is higher: 6.3 for the first, 5.6 for the second.

Going from `N#Cc1cccc(S)c1` [meta-cyanophenyl mercaptan] to `Sc1cccc(I)c1` [meta-iodophenyl mercaptan], the pKa rises from 6.3 to 6.8.

Going from `O=S(=O)(O)c1ccc(S)cc1` [para-mercaptobenzenesulfonic acid] to `Sc1ccc(Cl)cc1` [para-chlorophenyl mercaptan], the pKa rises from 5.7 to 7.

First: CC(=O)c1cccc(S)c1 [meta-acetyl phenyl mercaptan]
Second: N#Cc1ccc(S)cc1 [para-cyanophenyl mercaptan]
The pKa of the first is higher: 6.9 for the first, 6 for the second.
